Laboratory results as given in the supplement of paper PMC10307832.

Columns and labels:
Assay in all cases: relative viability (nuclei count vs DMSO), 5 days (fraction); higher = more cells survive
Bortezomib + Luminespib = compound: CC(C)C[C@H](NC(=O)[C@H](Cc1ccccc1)NC(=O)c1cnccn1)B(O)O [Bortezomib] + CCNC(=O)c1noc(-c2cc(C(C)C)c(O)cc2O)c1-c1ccc(CN2CCOCC2)cc1 [Luminespib] (partner 0.01 µM)
Outline: (§1)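 Nuclei were stained with Hoechst during a one-step fixation (final 0.05% Triton X-100, 1% formaldehyde, 1 ug/ml Hoechst) carried out 5 days after dosing, then counted on 4× images. The cells, lung cancer lines in 1536-well plates, had been dosed by pin tool the day after seeding with one drug alone or a fixed anchor-drug dose plus five library-drug doses (not always all listed) in √10 steps. Relative viability is the nuclei count in treated wells divided by that in vehicle wells, and each value is the median of duplicate plates.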

Bortezomib + Tozasertib = compound: CC(C)C[C@H](NC(=O)[C@H](Cc1ccccc1)NC(=O)c1cnccn1)B(O)O [Bortezomib] + Cc1cc(Nc2cc(N3CCN(C)CC3)nc(Sc3ccc(NC(=O)C4CC4)cc3)n2)n[nH]1 [Tozasertib] (partner 0.1 µM)
Outline: as §1

[1] = compound: CC1=CC(=NN1)NC2=CC(=NC(=N2)/C=C/C3=CC=CC=C3)N4CCN(CC4)C + O=C(c1cc(Cc2n[nH]c(=O)c3ccccc23)ccc1F)N1CCN(C(=O)C2CC2)CC1 [Olaparib] (partner 8 µM)
Outline: as §1

Obatoclax + OSI-027 = compound: COC1=CC(c2cc3ccccc3[nH]2)=N/C1=C\c1[nH]c(C)cc1C [Obatoclax] + COc1cccc2cc(-c3nc([C@H]4CC[C@H](C(=O)O)CC4)n4ncnc(N)c34)[nH]c12 [OSI-027] (partner 0.5 µM)
Outline: as §1

Row | Cell Line | relative viability (Bortezomib + Luminespib; first compound 0.0002 µM) | relative viability (Bortezomib + Luminespib; first compound 0.000632 µM) | relative viability (Bortezomib + Luminespib; first compound 0.002 µM) | relative viability (Bortezomib + Luminespib; first compound 0.006325 µM) | relative viability (Bortezomib + Luminespib; first compound 0.02 µM) | relative viability (Bortezomib + Tozasertib; first compound 0.0002 µM) | relative viability (Bortezomib + Tozasertib; first compound 0.000632 µM) | relative viability (Bortezomib + Tozasertib; first compound 0.002 µM) | relative viability (Bortezomib + Tozasertib; first compound 0.006325 µM) | relative viability (Bortezomib + Tozasertib; first compound 0.02 µM) | relative viability ([1]; first compound 0.08 µM) | relative viability ([1]; first compound 0.253 µM) | relative viability ([1]; first compound 0.8 µM) | relative viability ([1]; first compound 2.53 µM) | relative viability ([1]; first compound 8 µM) | relative viability (Obatoclax + OSI-027; first compound 0.01 µM) | relative viability (Obatoclax + OSI-027; first compound 0.03162 µM) | relative viability (Obatoclax + OSI-027; first compound 0.1 µM) | relative viability (Obatoclax + OSI-027; first compound 0.3162 µM) | relative viability (Obatoclax + OSI-027; first compound 1 µM)
1 | NCI-H1651 | 0.868 | 0.906 | 1.07 | 0.154 | 0.114 | 0.694 | 0.72 | 0.619 | 0.099 | 0.101 | 0.177 | 0.189 | 0.176 | 0.166 | 0.135 | 0.628 | 0.712 | 0.804 | 0.428 | 0.252
2 | NCI-H522 | 0.983 | 0.97 | 0.959 | 0.745 | 0.367 | 0.475 | 0.529 | 0.419 | 0.344 | 0.337 | 0.64 | 0.647 | 0.61 | 0.472 | 0.319 | 0.7 | 0.718 | 0.71 | 0.734 | 0.775
3 | NCI-H441 | 0.331 | 0.341 | 0.236 | 0.159 | 0.168 | 0.66 | 0.799 | 0.383 | 0.186 | 0.191 | 0.569 | 0.55 | 0.503 | 0.401 | 0.116 | 0.772 | 0.502 | 0.704 | 0.354 | 0.271
4 | ABC-1 | 0.439 | 0.523 | 0.262 | 0.252 | 0.227 | 0.162 | 0.213 | 0.181 | 0.16 | 0.226 | 0.904 | 0.946 | 1.01 | 0.647 | 0.324 | 0.576 | 0.571 | 0.424 | 0.373 | 0.276
5 | NCI-H2126 | 0.864 | 0.904 | 0.821 | 0.543 | 0.213 | 0.815 | 0.921 | 0.763 | 0.488 | 0.214 | 0.865 | 0.91 | 0.908 | 0.801 | 0.518 | 0.766 | 0.546 | 0.878 | 0.651 | 0.736
6 | RERF-LC-KJ | 1.16 | 1.21 | 0.986 | 0.291 | 0.273 | 0.523 | 0.436 | 0.559 | 0.208 | 0.189 | 0.982 | 0.88 | 0.882 | 0.243 | 0.201 | 0.578 | 0.554 | 0.553 | 0.475 | 0.268
7 | NCI-H1666 | 0.951 | 1.02 | 0.98 | 0.319 | 0.322 | 0.558 | 0.664 | 0.51 | 0.296 | 0.261 | 0.748 | 0.7 | 0.767 | 0.741 | 0.501 | 0.881 | 0.89 | 0.95 | 0.443 | 0.5
8 | PC-14 | 0.153 | 0.163 | 0.13 | 0.0991 | 0.109 | 0.415 | 0.612 | 0.562 | 0.113 | 0.0502 | 0.285 | 0.289 | 0.275 | 0.0326 | 0.0264 | 0.729 | 0.834 | 0.67 | 0.519 | 0.0675
9 | NCI-H1915 | 0.724 | 0.732 | 0.721 | 0.0571 | 0.0533 | 0.428 | 0.448 | 0.416 | 0.0502 | 0.0519 | 0.256 | 0.255 | 0.262 | 0.223 | 0.126 | 0.613 | 0.585 | 0.584 | 0.604 | 0.546
10 | NCI-H661 | 0.928 | 0.858 | 0.921 | 0.4 | 0.151 | 0.367 | 0.355 | 0.341 | 0.287 | 0.201 | 0.658 | 0.826 | 0.752 | 0.424 | 0.275 | 0.689 | 0.704 | 0.709 | 0.649 | 0.407
11 | NCI-H2170 | 0.46 | 0.534 | 0.744 | 0.516 | 0.202 | 0.658 | 0.718 | 0.783 | 0.178 | 0.145 | 0.512 | 0.65 | 0.577 | 0.263 | 0.102 | 0.684 | 0.73 | 0.647 | 0.769 | 0.754
12 | PC-3 [JPC-3] | 0.663 | 0.669 | 0.505 | 0.226 | 0.127 | 0.827 | 0.898 | 0.442 | 0.169 | 0.125 | 1.16 | 1.31 | 1.22 | 1.09 | 0.615 | 0.808 | 0.728 | 0.791 | 0.731 | 0.752
13 | LCLC-103H | 0.902 | 0.955 | 0.495 | 0.175 | 0.152 |  | 0.485 | 0.251 | 0.147 | 0.128 | 0.775 | 0.846 | 0.716 | 0.668 | 0.481 | 0.462 | 0.462 | 0.404 | 0.457 | 0.541
14 | EKVX | 0.833 | 0.827 | 0.89 | 0.646 | 0.113 | 0.419 | 0.437 | 0.342 | 0.2 | 0.105 | 0.779 | 0.804 | 0.904 | 0.695 | 0.157 | 0.708 | 0.74 | 0.797 | 0.561 | 0.667
15 | NCI-H460 | 0.0335 | 0.0348 | 0.033 | 0.0295 | 0.0196 | 0.386 | 0.366 | 0.616 | 0.304 | 0.0187 | 0.38 | 0.362 | 0.427 | 0.147 | 0.025 | 0.697 | 0.703 | 0.635 | 0.0709 | 0.0443
16 | NCI-H1793 | 0.184 | 0.151 | 0.171 | 0.204 | 0.127 | 0.316 | 0.299 | 0.444 | 0.252 | 0.102 | 0.845 | 1.06 | 0.667 | 0.138 | 0.0993 | 0.293 | 0.286 | 0.248 | 0.275 | 0.298
